Experimental data as given in the CheMixHub viscosity set.

Experiment: xn = mol fraction of the nth substance listed

CCOCCOCCO + ClC=C(Cl)Cl
298.15 K, 101.33 kPa
Details	viscosity [mPa·s]
x1 = 0.0082	0.539
x1 = 0.0263	0.563
x1 = 0.0381	0.58
x1 = 0.0517	0.602
x1 = 0.0641	0.62
x1 = 0.0756	0.639
x1 = 0.0944	0.669
x1 = 0.129	0.736
x1 = 0.1724	0.823
x1 = 0.2108	0.91
x1 = 0.2459	0.997
x1 = 0.2921	1.117
x1 = 0.3336	1.235
x1 = 0.3791	1.376
x1 = 0.4231	1.528
x1 = 0.457	1.659
x1 = 0.4908	1.788
x1 = 0.5204	1.902
x1 = 0.557	2.042
x1 = 0.5875	2.163
x1 = 0.632	2.342
x1 = 0.6736	2.519
x1 = 0.7163	2.701
x1 = 0.7635	2.912
x1 = 0.7976	3.068
x1 = 0.8333	3.224
x1 = 0.8779	3.423
x1 = 0.9203	3.621
x1 = 0.9414	3.723
x1 = 0.9717	3.857
x2 = 0.018	3.895

O=[N+]([O-])c1ccccc1 + CCC(C)O
viscosity [mPa·s], 100 kPa
Details	x1 = 0.081	x1 = 0.16	x1 = 0.24	x1 = 0.35	x1 = 0.4949	x1 = 0.56	x1 = 0.65	x1 = 0.74	x1 = 0.8205	x1 = 0.9399
293.15 K	3.138	2.694	2.349	2.041	1.854	1.838	1.859	1.915	1.975	2.078
298.15 K	2.591	2.246	1.983	1.74	1.619	1.612	1.647	1.719	1.78	1.861
303.15 K	2.232	1.989	1.801	1.632	1.528	1.521	1.539	1.58	1.638	1.708
308.15 K	1.905	1.731	1.598	1.476	1.408	1.405	1.422	1.459	1.498	1.577
313.15 K	1.627	1.489	1.384	1.289	1.248	1.252	1.275	1.32	1.379	1.457
318.15 K	1.411	1.309	1.233	1.169	1.147	1.155	1.18	1.224	1.274	1.351
323.15 K	1.233	1.159	1.104	1.058	1.044	1.055	1.081	1.122	1.168	1.253

O=[N+]([O-])c1ccccc1 + OCCOCCO
viscosity [mPa·s], 101 kPa
Details	298.15 K	308.15 K
x2 = 0.0441	1.987	1.691
x2 = 0.1493	2.565	2.115
x2 = 0.2505	3.312	2.642
x2 = 0.3502	4.303	3.31
x2 = 0.4438	5.55	4.117
x2 = 0.4934	6.373	4.632
x2 = 0.5487	7.457	5.293
x2 = 0.6506	10.04	6.804
x2 = 0.751	13.58	8.774
x2 = 0.8498	18.47	11.34
x2 = 0.9429	24.89	14.54

O=[N+]([O-])c1ccccc1 + CC(C)O
viscosity [mPa·s]
Details	293.15 K	298.15 K	303.15 K	308.15 K	313.15 K	318.15 K	323.15 K
100 kPa, x1 = 0.081	2.112	1.849	1.625	1.428	1.247	1.101	0.9776
100 kPa, x1 = 0.16	1.892	1.679	1.494	1.333	1.166	1.039	0.9339
100 kPa, x1 = 0.2401	1.742	1.56	1.402	1.264	1.111	1.003	0.9084
100 kPa, x1 = 0.3501	1.624	1.468	1.332	1.212	1.082	0.9879	0.9036
100 kPa, x1 = 0.44	1.597	1.446	1.318	1.203	1.088	1.002	0.9207
100 kPa, x1 = 0.56	1.637	1.482	1.347	1.232	1.134	1.05	0.9715
100 kPa, x1 = 0.6499	1.703	1.54	1.401	1.281	1.187	1.105	1.024
100 kPa, x1 = 0.7399	1.795	1.622	1.475	1.349	1.256	1.171	1.087
100 kPa, x1 = 0.85	1.92	1.739	1.586	1.454	1.355	1.262	1.174
100 kPa, x1 = 0.9399	2.022	1.842	1.685	1.55	1.442	1.342	1.25
101.33 kPa, x1 = 0.0512	–	1.881	1.567	–	–	–	–
101.33 kPa, x1 = 0.1088	–	1.67	1.476	–	–	–	–
101.33 kPa, x1 = 0.1732	–	1.529	1.344	–	–	–	–
101.33 kPa, x1 = 0.2456	–	1.462	1.297	–	–	–	–
101.33 kPa, x1 = 0.3281	–	1.459	1.277	–	–	–	–
101.33 kPa, x1 = 0.4228	–	1.45	1.292	–	–	–	–
101.33 kPa, x1 = 0.5325	–	1.439	1.323	–	–	–	–
101.33 kPa, x1 = 0.661	–	1.523	1.398	–	–	–	–
101.33 kPa, x1 = 0.8145	–	1.603	1.434	–	–	–	–
